Assays:
mu opiate receptor = target: T1, mu opiate receptor (Rattus norvegicus, UniProt P33535); experiment: Inhibition of [3H]DAMGO binding to the mu opiate receptor in rat brain homogenates; design: Mean: unit not given beside the values; conditions: 0.08 mg of compound per milliliter, 7 nM 3H-labeled DAMGO, rat brain membranes; for % Bound: [3H]DAMGO bound; for Mean: mean bound radioactivity of [3H]DAMGO; for Minus NSB*: mean minus non-specific binding; for % Inhibition: percent inhibition of DAMGO binding
T1 construct: from tissue; host or cells: rat brain membranes/homogenate
How it was run: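 Members of an imidazo-imidazolone compound library were tested for blocking binding of [^3H]DAMGO, a mu opiate receptor-specific ligand, to rat brain membranes. Each 0.65 mL tube held 0.08 mg of compound mixture per milliliter, 0.5 mL membrane suspension (0.1 mg of protein) and 7 nM ^3H-labeled DAMGO (36 Ci/mmol) in 50 mM Tris-HCl buffer (pH 7.4).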

kappa opiate receptor = target: T2, kappa opiate receptor (Cavia porcellus, UniProt P41144); experiment: Inhibition of tritiated U69,593 binding to the kappa opiate receptor in guinea pig brain homogenates; design: Mean: unit not given beside the values; conditions: 3 nm tritiated U69,593, guinea pig brain membranes; for % Bound: [3H]U69,593 bound; for % Inhibition: inhibition of [3H]U69,593 binding; for Mean: mean bound radioactivity of [3H]U69,593, 2.5 hours 25° C.; for Minus NSB: mean minus non-specific binding
T2 construct: guinea pig cortices and cerebella were homogenized in 40 mL of Buffer A; from tissue; host or cells: guinea pig cortices and cerebella, crude membrane suspension
How it was run: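 Guinea pig cortex and cerebellum membranes in 50 mM Tris-HCl pH 7.4 incubated with 3 nM [³H]U69,593 for 2.5 h at 25 °C, then filtered and bound radioactivity counted. Unlabelled U50,488 served as competitor for standard curve and nonspecific binding.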

T1 sequence (P33535 whole entry): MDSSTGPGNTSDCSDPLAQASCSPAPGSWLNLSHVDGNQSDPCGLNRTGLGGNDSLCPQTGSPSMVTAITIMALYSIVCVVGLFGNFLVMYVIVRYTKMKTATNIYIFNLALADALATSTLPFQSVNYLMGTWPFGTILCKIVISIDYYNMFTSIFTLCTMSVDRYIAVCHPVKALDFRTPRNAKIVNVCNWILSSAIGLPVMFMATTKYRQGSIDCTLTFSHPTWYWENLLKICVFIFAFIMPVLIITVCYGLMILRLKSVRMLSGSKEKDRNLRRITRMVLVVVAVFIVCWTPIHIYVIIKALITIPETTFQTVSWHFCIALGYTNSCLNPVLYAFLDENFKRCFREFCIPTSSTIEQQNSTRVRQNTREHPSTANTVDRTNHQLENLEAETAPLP
T2 sequence (P41144 whole entry): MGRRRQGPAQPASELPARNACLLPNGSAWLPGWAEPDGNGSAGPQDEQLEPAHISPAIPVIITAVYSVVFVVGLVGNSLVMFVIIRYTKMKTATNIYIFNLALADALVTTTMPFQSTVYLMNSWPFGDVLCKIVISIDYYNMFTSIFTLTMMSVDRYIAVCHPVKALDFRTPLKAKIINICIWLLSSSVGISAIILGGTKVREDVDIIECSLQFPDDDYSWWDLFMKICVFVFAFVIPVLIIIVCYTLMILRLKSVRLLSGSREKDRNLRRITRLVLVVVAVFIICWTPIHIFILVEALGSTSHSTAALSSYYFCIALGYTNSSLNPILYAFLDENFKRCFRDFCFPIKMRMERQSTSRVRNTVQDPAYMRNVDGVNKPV

Row | Compound | % Bound (mu opiate receptor) [%] | Mean (mu opiate receptor) | Minus NSB* (mu opiate receptor) | % Inhibition (mu opiate receptor) [%] | % Bound (kappa opiate receptor) [%] | % Inhibition (kappa opiate receptor) [%] | Mean (kappa opiate receptor) | Minus NSB (kappa opiate receptor)
1 | CC(C)c1nc(CC2CCCCC2)n2c1NC(=O)C2C(C)C (stereo not drawn) [Pool 138] | 60 | 877.8 | 569.80 | 40 | 70.685 | 29.315 | 1639.3 | 732.30
2 | CC(C)c1nc(C(C2CCCCC2)C2CCCCC2)n2c1NC(=O)C2C(C)C (stereo not drawn) [Pool 139] | 65 | 928.85 | 620.85 | 35 | 58.779 | 41.221 | 1515.95 | 608.95
3 | CC(C)c1nc(CCCC2CCCCC2)n2c1NC(=O)C2C(C)C (stereo not drawn) [Pool 140] | 32 | 615.55 | 307.55 | 68 | 49.903 | 50.097 | 1424 | 517.00
4 | Cc1nc(C(C)C)c2n1C(C(C)C)C(=O)N2 (stereo not drawn) [Pool 142] | 67 | 946.05 | 638.05 | 33 | 79.324 | 20.676 | 1728.8 | 821.80
5 | CC(C)c1nc(C2CCC2)n2c1NC(=O)C2C(C)C (stereo not drawn) [Pool 144] | 59 | 867.3 | 559.30 | 41 | 52.172 | 47.828 | 1447.5 | 540.50
6 | CC(C)c1nc(C2CCCC2)n2c1NC(=O)C2C(C)C (stereo not drawn) [Pool 145] | 71 | 986.9 | 678.90 | 29 | 61.501 | 38.499 | 1544.15 | 637.15
7 | CC(C)c1nc(CCC2CCCC2)n2c1NC(=O)C2C(C)C (stereo not drawn) [Pool 146] | 67 | 945.85 | 637.85 | 33 | 69.088 | 30.912 | 1622.75 | 715.75
8 | CC(C)c1nc(CCC2CCCCC2)n2c1NC(=O)C2C(C)C (stereo not drawn) [Pool 148] | 61 | 890.8 | 582.80 | 39 | 89.971 | 10.029 | 1839.1 | 932.10
9 | CC1CCC(Cc2nc(C(C)C)c3n2C(C(C)C)C(=O)N3)CC1 (stereo not drawn) [Pool 152] | 48 | 770.1 | 462.10 | 52 | 58.697 | 41.303 | 1515.1 | 608.10
10 | CC(C)c1nc(CC2CC3CCC2C3)n2c1NC(=O)C2C(C)C (stereo not drawn) [Pool 155] | 64 | 918.35 | 610.35 | 36 | 69.040 | 30.960 | 1622.25 | 715.25
11 | CC(C)c1nc(CC23CC4CC(CC(C4)C2)C3)n2c1NC(=O)C2C(C)C (stereo not drawn) [Pool 156] | 65 | 925.85 | 617.85 | 35 | 78.803 | 21.197 | 1723.4 | 816.40
12 | CCC(CC)c1nc(C(C)C)c2n1C(C(C)C)C(=O)N2 (stereo not drawn) [Pool 157] | 65 | 930.35 | 622.35 | 35 | 54.638 | 45.362 | 1473.05 | 566.05

From patent publication US6545032B1, “Synthesis of [3,5,7]-H-imidazo[1,5-a] imidazol-2(3H)-one compounds” (Torrey Pines Institute for Molecular Studies, priority 1999, dated 2003)
